{"source": "patent US20100040738A1", "about": "“Extension Of Beverage Shelf-Stability By Solute-Ligand Complexes” (PepsiCo., Inc., priority 2008, published 2010)", "key": {"[1]": {"system": "Saccharomyces cerevisiae, Zygosaccharomyces balii and Zygosaccharomyces bisporus", "assay": "Inhibition of growth of 3 spoilage yeast in model beverage, 16 weeks incubation", "assay_type": "cell-based", "conditions": "for amount in complex required to inhibit growth of 3 different spoilage yeast: in complex with alpha or beta cyclodextrin", "protocol": "(§1) In each of the examples below, the period of incubation is 16 weeks which relates to the standard shelf life period for beverages distributed at ambient temperature. If a chemical simply retards growth for a period less than 16 weeks, then it will not fulfill the need of the manufacturer. The concentration of the chemical employed to prohibit spoilage is often reported as the Minimum Inhibitory Concentration (MIC). The MIC value of a candidate compound for use as a beverage preservative is the concentration of the candidate which permits the beverage to remain free of spoilage for a period of 16 weeks.\n(§2) The base composition of the model beverage per liter is: […]\nas §2\nA model high acid beverage system (pH <4.6) of 10% juice content was prepared to test efficacy of methoxycinnamate either in the non-complex form or as the alpha (α) or beta (β) cyclodextrin-included (complex) form. The base composition of the model beverage per liter is: […]"}, "spoilage organisms": {"system": "spoilage organisms", "assay": "MIC of antimicrobial candidates (Table II)", "assay_type": "cell-based", "protocol": "“Minimal inhibitory concentration” (MIC) is another term for which no standard time period is included in the definition.\nas §1"}, "[2]": {"assay": "Solubility limit in model beverage system, non-complex form or cyclodextrin complex", "assay_type": "physicochemical", "conditions": "for solubility limit / limit of solubility in beverage: non-complex form; for limit of solubility in beverage: across test beverages", "protocol": "The base composition of the model beverage per liter is:\nA model high acid beverage system (pH <4.6) of 10% juice content was prepared to test efficacy of methoxycinnamate either in the non-complex form or as the alpha (α) or beta (β) cyclodextrin-included (complex) form. The base composition of the model beverage per liter is:\nA model low acid beverage system (pH ≧4.6) with high water activity (>0.97) was prepared to test efficacy of methoxycinnamate either in the non-complex form or as the alpha (α) or beta (β) cyclodextrin-included (complex) form. The base composition of the model beverage per liter is:\nA model high acid beverage system (pH <4.6) of 10% juice content was prepared to test efficacy of trans, trans 2,4 decadienal either in the non-complex form or as the alpha (α) or beta (β) cyclodextrin-included (complex) form. The base composition of the model beverage per liter is:\nA model low acid beverage system (pH ≧4.6) with high water activity (>0.97) was prepared to test efficacy of trans, trans 2,4 decadienal either in the non-complex form or as the alpha (α) or beta (β) cyclodextrin-included (complex) form. The base composition of the model beverage per liter is: […]"}, "[3]": {"conditions": "high acid model beverage pH 3.4, 10% grape juice (Example 3)"}, "[4]": {"conditions": "low acid model tea beverage pH 5.3 (Examples 4 and 6)"}, "[5]": {"conditions": "at limit of solubility, summary of examples"}, "[6]": {"conditions": "at solubility limit concentration, low acid model tea beverage pH 5.3 (Examples 4 and 6)"}, "[7]": {"conditions": "in complex with α-cyclodextrin, low acid model tea beverage pH 5.3 (Examples 4 and 6)"}, "[8]": {"conditions": "in complex with β-cyclodextrin, low acid model tea beverage pH 5.3 (Examples 4 and 6)"}, "[9]": {"conditions": "high acid model beverage pH 3.4, 5% grape and 5% apple juice (Example 5)"}}, "note": "Where two headings read alike, the source gives them in different places.", "data": [{"compound": "CCCOC(=O)c1ccc(O)cc1", "note": "[propyl paraben, Propyl paraban]", "values": [{"measurement": "amount in complex required to inhibit growth of 3 different spoilage yeast", "setting": "[1]; summary of examples", "result": "510-600 ppm"}, {"measurement": "amount required to inhibit growth of 3 different spoilage yeast", "setting": "[1]; in complex with α-cyclodextrin, high acid model beverage pH 3.4, 10% apple juice (Example 1)", "result": 510, "unit": "mg/L"}, {"measurement": "amount required to inhibit growth of 3 different spoilage yeast", "setting": "[1]; in complex with α-cyclodextrin, low acid model beverage pH 5.8 (Example 2)", "result": 510, "unit": "mg/L"}, {"measurement": "amount required to inhibit growth of 3 different spoilage yeast", "setting": "[1]; in complex with β-cyclodextrin, high acid model beverage pH 3.4, 10% apple juice (Example 1)", "result": 600, "unit": "mg/L"}, {"measurement": "amount required to inhibit growth of 3 different spoilage yeast", "setting": "[1]; in complex with β-cyclodextrin, low acid model beverage pH 5.8 (Example 2)", "result": 650, "unit": "mg/L"}]}, {"compound": "Cc1ccc(C(C)C)c(O)c1", "note": "[thymol]", "values": [{"measurement": "MIC", "setting": "spoilage organisms; 2688 h, read-out: MIC", "result": 250, "unit": "µg/mL"}]}, {"compound": "CCCCCCCCCC=O", "note": "[Decanal]", "values": [{"measurement": "MIC", "setting": "spoilage organisms; 2688 h, read-out: MIC", "result": 47, "unit": "µg/mL"}]}, {"compound": "O=CC=Cc1ccccc1", "note": "[Cinnamaldehyde]", "values": [{"measurement": "MIC", "setting": "spoilage organisms; 2688 h, read-out: MIC", "result": 66, "unit": "µg/mL"}]}, {"compound": "COc1ccccc1C=CC=O", "note": "[o-methoxycinnamylaldehyde]", "values": [{"measurement": "MIC", "setting": "spoilage organisms", "result": 58, "unit": "ppm"}]}, {"compound": "C/C=C/C=C/C(=O)O", "note": "[Sorbic acid]", "values": [{"measurement": "MIC", "setting": "spoilage organisms; 2688 h, read-out: MIC", "result": 1200, "unit": "µg/mL"}]}, {"compound": "C/C(C=O)=C\\c1ccccc1", "note": "[methyl trans cinnamylaldehyde]", "values": [{"measurement": "MIC", "setting": "spoilage organisms", "result": 58.4, "unit": "ppm"}]}, {"compound": "methoxycinnamate", "values": [{"measurement": "solubility in the form of a complex with alpha or beta cyclodextrin", "setting": "[2]; [3]", "result": "≤ 3690", "unit": "µg/mL"}, {"measurement": "solubility in the form of a complex with alpha or beta cyclodextrin", "setting": "[2]; [4]", "result": "≤ 3411", "unit": "µg/mL"}, {"measurement": "solubility limit", "setting": "[2]; [3]", "result": 498, "unit": "µg/mL"}, {"measurement": "solubility limit", "setting": "[2]; [4]", "result": 600, "unit": "µg/mL"}, {"measurement": "limit of solubility in beverage", "setting": "[2]; summary of examples", "result": "498 to 600", "unit": "µg/mL"}, {"measurement": "solubility in the form of a complex with alpha or beta cyclodextrin", "setting": "[2]; summary of examples", "result": "≤ 3600", "unit": "µg/mL"}, {"measurement": "effective as a stand alone chemical preservative", "setting": "[1]; [5]", "result": "not effective"}, {"measurement": "effective as a stand alone chemical preservative", "setting": "[1]; at solubility limit concentration, high acid model beverage pH 3.4, 10% grape juice (Example 3)", "result": "not effective"}, {"measurement": "effective as a stand alone chemical preservative", "setting": "[1]; [6]", "result": "did not prove effective"}, {"measurement": "amount in complex required to inhibit growth of 3 different spoilage yeast", "setting": "[1]; summary of examples", "result": "400-807 ppm"}, {"measurement": "amount required to inhibit growth of 3 different spoilage yeast", "setting": "[1]; in complex with α-cyclodextrin, high acid model beverage pH 3.4, 10% grape juice (Example 3)", "result": 800, "unit": "mg/L"}, {"measurement": "amount required to inhibit growth of 3 different spoilage yeast", "setting": "[1]; [7]", "result": 800, "unit": "mg/L"}, {"measurement": "amount required to inhibit growth of 3 different spoilage yeast", "setting": "[1]; in complex with β-cyclodextrin, high acid model beverage pH 3.4, 10% grape juice (Example 3)", "result": 420, "unit": "mg/L"}, {"measurement": "amount required to inhibit growth of 3 different spoilage yeast", "setting": "[1]; [8]", "result": 420, "unit": "mg/L"}, {"measurement": "MIC", "setting": "[1]; in complex with β-cyclodextrin, summary of examples", "result": 400, "unit": "µg/mL"}, {"measurement": "MIC", "setting": "[1]; non-complex form, summary of examples", "result": "> 600", "unit": "µg/mL"}]}, {"compound": "CC(=O)OCCC1CCCCC1", "note": "[2-Cyclohexylethyl acetate]", "values": [{"measurement": "MIC", "setting": "spoilage organisms; 2688 h, read-out: MIC", "result": 102, "unit": "µg/mL"}]}, {"compound": "CCCCCCCCCCO", "note": "[1-Decanol]", "values": [{"measurement": "MIC", "setting": "spoilage organisms; 2688 h, read-out: MIC", "result": 24, "unit": "µg/mL"}]}, {"compound": "CCCCCCCCCCC=O", "note": "[Undecanal]", "values": [{"measurement": "MIC", "setting": "spoilage organisms; 2688 h, read-out: MIC", "result": 34, "unit": "µg/mL"}]}, {"compound": "CCCCC/C=C/C=C/C=O", "note": "[Trans, trans, 2,4 decadienal]", "values": [{"measurement": "solubility in the form of a complex with alpha or beta cyclodextrin", "setting": "[2]; [9]", "result": "≤ 280", "unit": "µg/mL"}, {"measurement": "solubility in the form of a complex with alpha or beta cyclodextrin", "setting": "[2]; [4]", "result": "≤ 280", "unit": "µg/mL"}, {"measurement": "solubility limit", "setting": "[2]; [9]", "result": 5.4, "unit": "µg/mL"}, {"measurement": "solubility limit", "setting": "[2]; [4]", "result": 5.8, "unit": "µg/mL"}, {"measurement": "limit of solubility in beverage", "setting": "[2]; summary of examples", "result": 57, "unit": "µg/mL"}, {"measurement": "solubility in the form of a complex with alpha or beta cyclodextrin", "setting": "[2]; summary of examples", "result": "≤ 280", "unit": "µg/mL"}, {"measurement": "effective as a stand alone chemical preservative", "setting": "[1]; [5]", "result": "not effective"}, {"measurement": "effective as a stand alone chemical preservative", "setting": "[1]; at solubility limit concentration, high acid model beverage pH 3.4, 5% grape and 5% apple juice (Example 5)", "result": "not effective"}, {"measurement": "effective as a stand alone chemical preservative", "setting": "[1]; [6]", "result": "did not prove effective"}, {"measurement": "amount in complex required to inhibit growth of 3 different spoilage yeast", "setting": "[1]; summary of examples", "result": "57-124 ppm"}, {"measurement": "amount required to inhibit growth of 3 different spoilage yeast", "setting": "[1]; in complex with α-cyclodextrin, high acid model beverage pH 3.4, 5% grape and 5% apple juice (Example 5)", "result": 60, "unit": "mg/L"}, {"measurement": "amount required to inhibit growth of 3 different spoilage yeast", "setting": "[1]; [7]", "result": 57, "unit": "mg/L"}, {"measurement": "amount required to inhibit growth of 3 different spoilage yeast", "setting": "[1]; in complex with β-cyclodextrin, high acid model beverage pH 3.4, 5% grape and 5% apple juice (Example 5)", "result": 125, "unit": "mg/L"}, {"measurement": "amount required to inhibit growth of 3 different spoilage yeast", "setting": "[1]; [8]", "result": 123, "unit": "mg/L"}, {"measurement": "MIC", "setting": "spoilage organisms", "result": 8, "unit": "ppm"}]}, {"compound": "CCCCCCCCC(=O)OC", "note": "[Methyl nonaoate]", "values": [{"measurement": "MIC", "setting": "spoilage organisms", "result": 90, "unit": "ppm"}]}, {"compound": "O=C(OCc1ccccc1)c1ccc(O)cc1", "note": "[Benzyl-4-hydroxbenzoate]", "values": [{"measurement": "MIC", "setting": "spoilage organisms", "result": 68, "unit": "ppm"}]}, {"compound": "CCCCCCCC1CCC(=O)O1", "note": "(stereo not drawn) [Undecalactone]", "values": [{"measurement": "MIC", "setting": "spoilage organisms", "result": 28, "unit": "ppm"}]}, {"compound": "CCCCCC1CCC(=O)O1", "note": "(stereo not drawn) [Nonanoic lactone]", "values": [{"measurement": "MIC", "setting": "spoilage organisms", "result": 63, "unit": "ppm"}]}, {"compound": "O=C(O)CCCC1CCCCC1", "note": "[Cyclohexanebutyric acid]", "values": [{"measurement": "MIC", "setting": "spoilage organisms; 2688 h, read-out: MIC", "result": 68, "unit": "µg/mL"}]}, {"compound": "C=C(C)C1CC=C(C=O)CC1", "note": "(stereo not drawn) [perillaldehyde]", "values": [{"measurement": "MIC", "setting": "spoilage organisms; 2688 h, read-out: MIC", "result": 500, "unit": "µg/mL"}]}, {"compound": "CCCOC(=O)c1ccccc1", "note": "[Propyl benzoate]", "values": [{"measurement": "MIC", "setting": "spoilage organisms; 2688 h, read-out: MIC", "result": 66, "unit": "µg/mL"}]}, {"compound": "O=C(O)C=Cc1ccccc1", "note": "[Cinnamic acid]", "values": [{"measurement": "MIC", "setting": "spoilage organisms; 2688 h, read-out: MIC", "result": 300, "unit": "µg/mL"}]}, {"compound": "CCCCCCCCC(=O)O", "note": "[Nonanoic acid]", "values": [{"measurement": "MIC", "setting": "spoilage organisms; 2688 h, read-out: MIC", "result": 63, "unit": "µg/mL"}]}]}
